Assays:
[1] = molecular target: T1, DPP IV (Sus scrofa, UniProt P22411); experiment: Degradation of GIP and analogues by DPP IV (HPLC); assay type: in vitro ADME
T1 construct: purchased Sigma (Poole, Dorset, UK)
Method: Degradation of GIP and Tyr^1-glucitol GIP by DPP IV. HPLC-purified GIP or Tyr^1-glucitol GIP were incubated at 37° C. with DPP-IV (5 mU) for various time periods in a reaction mixture made up to 500 μl with 50 mmol/l triethanolamine-HCl, pH 7.8 (final peptide concentration 1 mmol/l). Enzymatic reactions were terminated after 0, 2, 4 and 12 hours by addition of 5 μl of 10% (v/v) TFA/water. Samples were made up to a final volume of 1.0 ml with 0.12% (v/v) TFA and stored at −20° C. prior to HPLC analysis.
HPLC analysis of degraded GIP and Tyr^1-glucitol GIP. […] Using 0.1% (v/v) TFA in 70% acetonitrile/H20, the concentration of acetonitrile in the eluting solvent was raised from 0% to 31.5% over 15 min, to 38.5% over 30 minutes and from 38.5% to 70% over 5 minutes, using linear gradients. The absorbance was monitored at 206 nm and peak areas evaluated using a model 2221 LKB integrator. Samples recovered manually were concentrated using a Speed-Vac concentrator.
Electrospray ionization-mass spectrometry (ESI-MS) was carried out as described in Example 2. Degradation of GIP and novel GIP analogues by DPP IV and human plasma was carried out as described in Example 2.

[2] = molecular target: T2, human GIP receptor (Homo sapiens, UniProt P48546); experiment: Intracellular cyclic AMP production in GIP-receptor transfected CHL fibroblasts; assay type: cell-based
T2 construct: expressed in transfected cells; host or cells: Chinese hamster lung (CHL) fibroblasts, stably transfected
T2 sequence (P48546 22-466): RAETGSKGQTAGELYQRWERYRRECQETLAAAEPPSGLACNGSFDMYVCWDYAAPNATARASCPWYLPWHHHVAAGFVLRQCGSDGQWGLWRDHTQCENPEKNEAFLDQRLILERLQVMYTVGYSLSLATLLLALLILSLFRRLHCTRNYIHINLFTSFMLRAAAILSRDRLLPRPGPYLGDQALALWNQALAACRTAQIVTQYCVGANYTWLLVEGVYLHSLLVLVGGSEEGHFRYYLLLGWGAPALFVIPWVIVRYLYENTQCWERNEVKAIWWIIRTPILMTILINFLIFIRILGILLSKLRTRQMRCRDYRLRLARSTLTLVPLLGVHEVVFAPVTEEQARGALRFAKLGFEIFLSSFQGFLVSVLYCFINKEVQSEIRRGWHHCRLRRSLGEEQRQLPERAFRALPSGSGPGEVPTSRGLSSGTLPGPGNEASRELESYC
Method: In vitro biological activity. […] In brief, CHL cells were seeded into 12-well plates (Nünc, Roskilde, Denmark) at a density of 10^5 cells per well and allowed to grow for 48 hours before being loaded with tritiated adenine (2 μCi; TRK311; Amersham, Buckinghamshire, UK). The cells were then incubated at 37° C. for 6 hours in 1 ml DMEM supplemented with 0.5% (w/v) BSA and subsequently washed twice with HBS buffer (pH 7.4). […] The medium was subsequently removed and the cells lysed with 1 ml of 5% TCA containing 0.1 mmol/l unlabelled cyclic AMP and 0.1 mmol/l unlabelled ATP.

[3] = isolated enzyme dpp iv, pH 7.8, % Intact peptide remaining after time (h)

T1 sequence (P22411 whole entry): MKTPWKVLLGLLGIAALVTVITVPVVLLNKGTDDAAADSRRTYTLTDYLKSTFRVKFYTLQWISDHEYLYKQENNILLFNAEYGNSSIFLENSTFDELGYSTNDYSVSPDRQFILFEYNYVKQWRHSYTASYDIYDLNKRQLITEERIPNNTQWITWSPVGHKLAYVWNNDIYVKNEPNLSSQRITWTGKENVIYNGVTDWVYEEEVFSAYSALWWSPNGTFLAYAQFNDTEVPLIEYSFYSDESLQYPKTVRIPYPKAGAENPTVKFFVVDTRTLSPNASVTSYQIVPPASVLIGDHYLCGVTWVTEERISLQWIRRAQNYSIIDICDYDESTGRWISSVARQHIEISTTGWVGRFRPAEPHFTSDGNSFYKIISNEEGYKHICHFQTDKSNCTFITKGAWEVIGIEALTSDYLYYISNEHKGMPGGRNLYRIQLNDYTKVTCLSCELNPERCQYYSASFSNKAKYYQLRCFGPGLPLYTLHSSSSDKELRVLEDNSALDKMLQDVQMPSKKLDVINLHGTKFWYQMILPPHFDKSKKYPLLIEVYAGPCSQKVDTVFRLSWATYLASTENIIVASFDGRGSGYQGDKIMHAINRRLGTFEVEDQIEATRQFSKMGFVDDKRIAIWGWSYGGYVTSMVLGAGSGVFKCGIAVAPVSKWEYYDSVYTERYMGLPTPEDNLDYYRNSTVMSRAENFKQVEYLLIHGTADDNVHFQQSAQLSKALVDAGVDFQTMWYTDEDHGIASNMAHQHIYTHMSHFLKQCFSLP

Row | % Intact peptide remaining after time (h) ([1]; 0 h) [%] | metabolised at 12 h, 1 mmol/l ([1]; isolated enzyme dpp iv, pH 7.8) [%] | remaining at 2 h, 1 mmol/l [1, 3] [%] | remaining at 4 h, 1 mmol/l [1, 3] [%] | remaining at 8 h, 1 mmol/l [1, 3] [%] | remaining at 24 h, 1 mmol/l [1, 3] [%] | remaining at 4 h, 1 mmol/l ([1]; isolated enzyme dpp iv, pH 7.8, % intact after incubation with DPP IV) [%] | SMILES | EC50 [2] [nM]
1 | 100 | 60 | 52 ± 1 | 23 ± 1 | 0 | 0 | 54 | CC[C@H](C)[C@H](NC(=O)[C@H](CO)NC(=O)[C@H](Cc1ccc(O)cc1)NC(=O)[C@H](CC(=O)O)NC(=O)[C@H](CO)NC(=O)[C@@H](NC(=O)[C@H](Cc1ccccc1)NC(=O)[C@@H](NC(=O)CNC(=O)[C@H](CCC(=O)O)NC(=O)[C@H](C)NC(=O)[C@@H](N)Cc1ccc(O)cc1)[C@@H](C)O)[C@@H](C)CC)C(=O)N[C@@H](C)C(=O)N[C@@H](CCSC)C(=O)N[C@@H](CC(=O)O)C(=O)N[C@@H](CCCCN)C(=O)N[C@H](C(=O)N[C@@H](Cc1c[nH]cn1)C(=O)N[C@@H](CCC(N)=O)C(=O)N[C@@H](CCC(N)=O)C(=O)N[C@@H](CC(=O)O)C(=O)N[C@@H](Cc1ccccc1)C(=O)N[C@H](C(=O)N[C@@H](CC(N)=O)C(=O)N[C@@H](Cc1c[nH]c2ccccc12)C(=O)N[C@@H](CC(C)C)C(=O)N[C@@H](CC(C)C)C(=O)N[C@@H](C)C(=O)N[C@@H](CCC(N)=O)C(=O)N[C@@H](CCCCN)C(=O)NCC(=O)N[C@@H](CCCCN)C(=O)N[C@@H](CCCCN)C(=O)N[C@@H](CC(N)=O)C(=O)N[C@@H](CC(=O)O)C(=O)N[C@@H](Cc1c[nH]c2ccccc12)C(=O)N[C@@H](CCCCN)C(=O)N[C@@H](Cc1c[nH]cn1)C(=O)N[C@@H](CC(N)=O)C(=O)N[C@H](C(=O)N[C@H](C(=O)N[C@@H](CCC(N)=O)C(=O)O)[C@@H](C)O)[C@@H](C)CC)C(C)C)[C@@H](C)CC [GIP 1–42, reference compound] | –
2 | – | – | – | – | – | – | – | CCCCCCCCCCCCCCCC(=O)NCCCC[C@H](NC(=O)[C@H](Cc1c[nH]c2ccccc12)NC(=O)[C@H](CC(=O)O)NC(=O)[C@H](CC(N)=O)NC(=O)[C@H](CCCCN)NC(=O)[C@H](CCCCN)NC(=O)CNC(=O)[C@H](CCCCN)NC(=O)[C@H](CCC(N)=O)NC(=O)[C@H](C)NC(=O)[C@H](CC(C)C)NC(=O)[C@H](CC(C)C)NC(=O)[C@H](Cc1c[nH]c2ccccc12)NC(=O)[C@H](CC(N)=O)NC(=O)[C@@H](NC(=O)[C@H](Cc1ccccc1)NC(=O)[C@H](CC(=O)O)NC(=O)[C@H](CCC(N)=O)NC(=O)[C@H](CCC(N)=O)NC(=O)[C@H](Cc1c[nH]cn1)NC(=O)[C@@H](NC(=O)[C@H](CCCCN)NC(=O)[C@H](CC(=O)O)NC(=O)[C@H](CCSC)NC(=O)[C@H](C)NC(=O)[C@@H](NC(=O)[C@H](CO)NC(=O)[C@H](Cc1ccc(O)cc1)NC(=O)[C@H](CC(=O)O)NC(=O)[C@H](CO)NC(=O)[C@@H](NC(=O)[C@H](Cc1ccccc1)NC(=O)[C@@H](NC(=O)CNC(=O)[C@H](CCC(=O)O)NC(=O)[C@H](C)NC(=O)[C@H](Cc1ccc(O)cc1)NC(C)=O)[C@@H](C)O)[C@@H](C)CC)[C@@H](C)CC)[C@@H](C)CC)C(C)C)C(=O)N[C@@H](Cc1c[nH]cn1)C(=O)N[C@@H](CC(N)=O)C(=O)N[C@H](C(=O)N[C@H](C(=O)N[C@@H](CCC(N)=O)C(=O)O)[C@@H](C)O)[C@@H](C)CC [N-AcGIP(LysPAL^37)] | 13
